Where two headings read alike, the source gives them in different places.
Assays:
[1] = biological target: T1, MOR–Rluc8 and Gαi1β1γ2–GFP2 (Homo sapiens, UniProt P35372+P63096); assay type: cell-based; conditions: MOR in the apo state, mean ± s.d.
[2] = biological target: T1, MOR–Rluc8 and Gαi1β1γ2–GFP2; assay type: cell-based

T1 sequence (P63096 2-354 limits assumed): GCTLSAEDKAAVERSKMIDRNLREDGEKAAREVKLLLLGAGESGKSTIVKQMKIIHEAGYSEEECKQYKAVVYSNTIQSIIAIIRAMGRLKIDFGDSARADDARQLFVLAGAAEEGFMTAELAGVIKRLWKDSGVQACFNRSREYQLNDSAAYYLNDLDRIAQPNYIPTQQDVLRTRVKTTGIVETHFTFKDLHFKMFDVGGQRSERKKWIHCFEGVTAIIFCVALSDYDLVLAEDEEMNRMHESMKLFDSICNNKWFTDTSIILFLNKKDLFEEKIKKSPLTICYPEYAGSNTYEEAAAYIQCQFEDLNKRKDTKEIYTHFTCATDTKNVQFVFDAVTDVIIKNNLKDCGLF
T1 sequence (P35372 whole entry): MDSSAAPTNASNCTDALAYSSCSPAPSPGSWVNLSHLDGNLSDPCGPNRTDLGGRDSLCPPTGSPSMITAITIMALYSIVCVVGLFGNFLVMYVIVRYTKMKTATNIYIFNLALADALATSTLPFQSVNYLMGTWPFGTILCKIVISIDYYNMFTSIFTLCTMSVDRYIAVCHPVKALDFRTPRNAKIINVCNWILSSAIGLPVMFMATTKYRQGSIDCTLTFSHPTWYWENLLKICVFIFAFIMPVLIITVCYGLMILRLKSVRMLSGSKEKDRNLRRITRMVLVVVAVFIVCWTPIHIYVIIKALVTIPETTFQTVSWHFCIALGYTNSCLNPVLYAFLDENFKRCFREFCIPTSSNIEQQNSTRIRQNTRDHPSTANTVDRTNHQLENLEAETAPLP
T1 sequence (P62873 2-340 partner limits assumed): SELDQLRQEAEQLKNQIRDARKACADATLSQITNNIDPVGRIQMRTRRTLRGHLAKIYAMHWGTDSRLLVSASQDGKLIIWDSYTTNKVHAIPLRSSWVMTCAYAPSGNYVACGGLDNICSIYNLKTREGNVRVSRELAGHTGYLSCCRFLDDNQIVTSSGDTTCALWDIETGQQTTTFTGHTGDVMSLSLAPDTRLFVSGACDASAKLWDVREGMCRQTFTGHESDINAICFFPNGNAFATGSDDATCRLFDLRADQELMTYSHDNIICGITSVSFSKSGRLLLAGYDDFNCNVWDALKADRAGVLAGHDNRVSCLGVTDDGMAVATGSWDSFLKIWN
T1 sequence (P59768 2-68 partner limits assumed): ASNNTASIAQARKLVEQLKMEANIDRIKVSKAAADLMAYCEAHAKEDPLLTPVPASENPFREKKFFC

SMILES: Nc1nc2c(ncn2[C@@H]2O[C@H](COP(=O)(O)OP(=O)(O)OP(O)(O)=S)[C@@H](O)[C@H]2O)c(=O)[nH]1 [GTPγS]
- EC50 ([1]; read-out: GTPγS EC50): 3.8 ± 0.18 nM

SMILES: Nc1nc2c(ncn2[C@@H]2O[C@H](COP(=O)(O)OP(O)(O)=S)[C@@H](O)[C@H]2O)c(=O)[nH]1 [GDPβS]
- EC50 ([1]; read-out: GDPβS EC50): 57 ± 14 nM

SMILES: C[C@H]1CN(C[C@H](Cc2ccccc2)C(=O)NCC(=O)O)CC[C@@]1(C)c1cccc(O)c1 [Alvimopan]
- signal changes [2]: too small to interpret
